According to patent US8546416B2, “3-spirocyclic piperidine derivatives as ghrelin receptor agonists” (Novartis AG, priority 2011, dated 2013):

Experiments:
[1] = molecular target: T1, human recombinant ghrelin receptor (GHS-R1a) (Homo sapiens, UniProt Q92847); test: hGHS-R1a Ca assay (Fluo-4 calcium assay in CHO-K1 cells); assay type: cell-based; details: for EC50: CHO-K1 cells expressing human GHS-R1a, agonist dose response up to 30 μM
T1 construct: host or cells: CHO-K1
Procedure: (§1) Chinese hamster ovary (CHO-K1) cells expressing human recombinant ghrelin receptor (GHS-R1a) were purchased from Euroscreen (ES-410-C) and propagated in UltraCHO medium containing glutamine and supplemented with 1% heat inactivated foetal calf serum (FCS), 100 U/ml penicillin, 100 mg/l streptomycin and 0.8 g/l geneticin. Cells were sub-cultured twice a week with a 1:10 dilution. For passaging, cells were washed with 1×DPBS without calcium and magnesium, trypsinised for 10 min with 0.05% Trypsin/EDTA and resuspended in cell culture medium.
Cells were diluted to achieve 1×10^6 cells/ml, seeded in 384-well black clear bottom CellBind plates at 25000 cells/well (25 ul) and incubated overnight at 37° C./5% CO2 Cells were expected to be 85-90% confluent on the day of assay (checked under the microscope) to ensure a high quality assay. Media was manually removed and 40 μl of loading solution containing probenecid and Fluo-4 no wash dye (a calcium indicator, Invitrogen F36206) were added to each well. After 30 min at 37° C. followed by another 30 min at RT, cpds were added to the wells. To generate a dose response up to 30 μM, 10 mM compound stocks in 100% (v/v) DMSO were firstly diluted in 50% (v/v) DMSO. Then, serial dilutions aimed at a full logarithmic dose responses (8 point) were performed in assay buffer [1×HBSS, 20 mM Hepes, 0.1% (w/v) BSA] to give 2.5% (v/v) DMSO and 5× final compound concentrations. The final assay DMSO concentration was 0.5% (v/v). After loading the cells with Fluo-4 containing solution, plates were read on a CellLux instrument (Perkin Elmer). A protocol set up to add 10 μl of 5× compound and to read the plate for 60 sec after adding the compound at 17th sec was used. Fluorescence excitation took place at 494 nm and emission at 516 nm. EC50 values of agonists were calculated by fitting the percent stimulation over background [(Max−Min)/Min] using the nonlinear logistic function of the Prism 5 software (GraphPad, USA).

[2] = molecular target: T1, human recombinant ghrelin receptor (GHS-R1a); test: hGHS-R1a cAMP assay (HTRF cAMP dynamic 2 kit, CHO-hGHS-R1a cells); assay type: cell-based; details: 60 min incubation, dose response up to 30 μM
Procedure: as §1
The Homogeneous Time-Resolved Fluorescence (HTRF) cAMP dynamic 2 kit (Cisbio International, France) was used as follows. CHO-hGHS-R1a or CHO-rGHS-R1a cells were seeded in a volume of 25 μl culture media at 10,000 cells/well (400,000 cells/ml) in Greiner white 384-well high volume plates and incubated overnight (18-24 h) at 37° C./5% CO2. Then, media was removed and 6 μl assay buffer [HBSS, 10 mM Hepes, 0.2% (w/v) BSA, 1.7 mM IBMX, (pH7.4)] were added to the wells. To generate a dose response up to 30 μM, 10 mM compound stocks in 100% (v/v) DMSO were firstly diluted in 50% (v/v) DMSO followed by a further dilution into assay buffer. Then, 4 μl of 2.5× compound (dose response as 9 point log serial dilution in assay buffer from 30 μM as maximum concentration) were added to each well achieving a final DMSO assay concentration of 0.8% (v/v). 0.1 μM forskolin was added as positive control. After 30 min (rGHS-R1a cell line) or 60 min (hGHS-R1a cell line) incubation at 37° C./5% CO2, 5 μl of cAMP-d2 and 5 μl of anti-cAMP antibody-cryptate, (both made in lysis buffer), were added to the plate followed by 1 h incubation at RT. During this time, cAMP produced by the cells competed with cAMP-d2 for the anti-cAMP antibody-cryptate molecule. Then, the plate was read on the Pherastar instrument (BMG, Germany) at two different emission wavelengths (620 and 650 nm). Increasing levels of endogenous cAMP produced by cells could be followed by a decrease of FRET fluorescent signal and viceversa. Values represented by a change in arbitrary fluorescence ratios (665/620) were converted into cAMP concentrations by using a standard curve, the reagents for which were supplied with the kit. EC50 values of agonists were calculated using the nonlinear logistic function of the Prism 5 software (GraphPad, USA). Emax were expressed as relative values of the ghrelin response, which was defined as 100%.

T1 sequence (Q92847 whole entry): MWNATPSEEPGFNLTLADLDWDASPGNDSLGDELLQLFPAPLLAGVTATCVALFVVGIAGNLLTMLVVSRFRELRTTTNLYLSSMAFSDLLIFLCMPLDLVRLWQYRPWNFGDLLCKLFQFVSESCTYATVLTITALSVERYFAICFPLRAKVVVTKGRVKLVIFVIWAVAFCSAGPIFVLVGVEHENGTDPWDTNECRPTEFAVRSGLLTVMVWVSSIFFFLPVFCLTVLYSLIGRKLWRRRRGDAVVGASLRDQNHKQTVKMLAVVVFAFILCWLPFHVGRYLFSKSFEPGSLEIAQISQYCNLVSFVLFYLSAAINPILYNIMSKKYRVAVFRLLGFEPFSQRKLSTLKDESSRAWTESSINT

Row | Structure (SMILES) | EC50 [1] | EC50 [2] | Emax ([1]; CHO-K1, relative to Emax induced by MK-0677 (defined as 100%))
1 | Cc1ccc(COC[C@@H](NC(=O)C(C)(C)N)C(=O)N2CCCC3(C2)C(=O)N(C)CC3c2ccccc2)cc1 (single isomer, unassigned) [Example 1.55] | 0.00013 µM | 0.072 µM | 
2 | CN1CC(c2ccccc2)C2(CCCN(C(=O)[C@@H](COCc3ccc(F)cc3)NC(=O)C(C)(C)N)C2)C1=O (single isomer, unassigned) [Example 7.0, 2-Amino-N-[(R)-1-(4-fluoro-benzyloxymethyl)-2-(4S,5R)-2-methyl-1-oxo-4-phenyl-2,7-diaza-spiro[4.5]dec-7-yl)-2-oxo-ethyl]-2-methyl-propionamide or 2-Amino-N-[(R)-1-(4-fluoro-benzyloxymethyl)-2-(4R,5S)-2-methyl-1-oxo-4-phenyl-2,7-diaza-spiro[4.5]dec-7-yl)-2-oxo-ethyl]-2-methyl-propionamide] | 0.00017 µM | 0.138 µM | 
3 | CN1CC(c2ccccc2)C2(CCCN(C(=O)[C@@H](CCCc3ccccc3)NC(=O)C(C)(C)N)C2)C1=O (single isomer, unassigned) [Example 1.32] | 0.0003 µM | 0.011 µM | 
4 | Cc1ccccc1C1CN(C)C(=O)C12CCCN(C(=O)[C@@H](COCc1ccccc1)NC(=O)C(C)(C)N)C2 (single isomer, unassigned) [Example 1.51] | 0.0002 µM | 0.067 µM | 
5 | COc1ccc(COC[C@@H](NC(=O)C(C)(C)N)C(=O)N2CCCC3(C2)C(=O)N(C)CC3c2ccccc2)cc1 (single isomer, unassigned) [Example 6.0(ii), 2-Amino-N-[(R)-1-(4-methoxy-benzyloxymethyl)-2-((4S,5R)-2-methyl-1-oxo-4-phenyl-2,7-diaza-spiro[4.5]dec-7-yl)-2-oxo-ethyl]-2-methyl-propionamide or 2-Amino-N-[(R)-1-(4-methoxy-benzyloxymethyl)-2-(4R,5S)-2-methyl-1-oxo-4-phenyl-2,7-diaza-spiro[4.5]dec-7-yl)-2-oxo-ethyl]-2-methyl-propionamide] | 0.0005 µM | 0.109 µM | 
6 | CC(C)(N)C(=O)N[C@H](COCc1ccccc1)C(=O)N1CCCC2(C1)C(=O)NCC2c1ccccc1 (single isomer, unassigned) [Example 1.49] | 0.0006 µM | 0.154 µM | 93%
7 | CN1CC(c2ccc(F)cc2)C2(CCCN(C(=O)[C@@H](COCc3ccc(Cl)cc3)NC(=O)C(C)(C)N)C2)C1=O (single isomer, unassigned) [Example 1.57] | 0.00022 µM | 0.043 µM | 
8 | CN1CC(c2ccccc2)C2(CCCN(C(=O)[C@@H](CCc3ccccc3)NC(=O)C(C)(C)N)C2)C1=O (single isomer, unassigned) [Example 1.28] | 0.00065 µM | 0.141 µM | 
9 | CN1C[C@@H](c2ccccc2)[C@@]2(CCCN(C(=O)[C@@H](COCc3ccccc3)NC(=O)C(C)(C)N)C2)C1=O (single isomer, unassigned) [Example 1.0(ii)] | 0.00016 µM | 0.043 µM | 
10 | Cc1ccc(COC[C@@H](NC(=O)C(C)(C)N)C(=O)N2CCCC3(C2)C(=O)N(C)CC3c2ccc(F)cc2)cc1 (single isomer, unassigned) [Example 1.29] | 0.00035 µM | 0.049 µM | 
11 | CN(C)C(=O)CN1CC(c2ccccc2)C2(CCCN(C(=O)[C@@H](COCc3ccccc3)NC(=O)C(C)(C)N)C2)C1=O (single isomer, unassigned) [Example 1.16] | 0.0005 µM | 0.039 µM | 
12 | Cc1ccc(COC[C@@H](NC(=O)C(C)(C)N)C(=O)N2CCCC3(C2)C(=O)N(C)CC3c2ccc(F)cc2)cc1 (stereo partly drawn) [Example 1.72, 2-amino-N-((2R)-1-(4-(4-fluorophenyl)-2-methyl-1-oxo-2,7-diazaspiro[4.5]decan-7-yl)-3-((4-methylbenzyl)oxy)-1-oxopropan-2-yl)-2-methylpropanamide] | 0.005 µM | 2.56 µM | 

Further lines, results first:

Row | EC50 [1] | EC50 [2] | Emax ([1]; CHO-K1, relative to Emax induced by MK-0677 (defined as 100%)) | Structure (SMILES)
13 | 0.0016 µM | 0.128 µM |  | CC(C)N1CC(c2ccc(F)cc2)C2(CCCN(C(=O)[C@@H](Cc3cn(C)c4ccccc34)NC(=O)C(C)(C)N)C2)C1=O (single isomer, unassigned) [Example 1.15]
14 | 0.0003 µM | 0.023 µM |  | CN1CC(c2ccc(F)cc2)C2(CCCN(C(=O)[C@@H](Cc3c[nH]c4ccccc34)NC(=O)C(C)(C)N)C2)C1=O (single isomer, unassigned) [Example 1.11]
15 | 0.0005 µM | 0.184 µM |  | C[C@H](OCc1ccccc1)[C@@H](NC(=O)C(C)(C)N)C(=O)N1CCCC2(C1)C(=O)N(C)CC2c1ccccc1 (single isomer, unassigned) [Example 1.34]
16 | 0.0003 µM | 0.043 µM |  | CCN1CC(c2ccccc2)C2(CCCN(C(=O)[C@@H](COCc3ccccc3)NC(=O)C(C)(C)N)C2)C1=O (single isomer, unassigned) [Example 1.25]
17 | 0.0029 µM | 0.517 µM |  | CN1CN(c2ccccc2)C2(CCCN(C(=O)[C@@H](COCc3ccccc3)NC(=O)C(C)(C)N)C2)C1=O (single isomer, unassigned) [Example 1.61]
18 | 0.0001 µM | 0.055 µM |  | CN1C[C@@H](c2ccc(F)cc2)[C@@]2(CCCN(C(=O)[C@@H](COCc3ccccc3)NC(=O)C(C)(C)N)C2)C1=O [Example 1.2, 2-Amino-N-((2R)-3-(benzyloxy)-1-((4S,5R)-4-(4-fluorophenyl)-2-methyl-1-oxo-2,7-diazaspiro[4.5]decan-7-yl)-1-oxopropan-2-yl)-2-methylpropanamide]
19 | 0.0054 µM | 5.9 µM |  | COc1ccc(C2CN(C)C(=O)C23CCCN(C(=O)[C@@H](COCc2ccccc2)NC(=O)C(C)(C)N)C3)cc1 (stereo partly drawn) [Example 1.74, 2-amino-N-((2R)-3-(benzyloxy)-1-(4-(4-methoxyphenyl)-2-methyl-1-oxo-2,7-diazaspiro[4.5]decan-7-yl)-1-oxopropan-2-yl)-2-methylpropanamide]
20 | 0.0001 µM | 0.02 µM |  | CC(C)N1CC(c2ccccc2)C2(CCCN(C(=O)[C@@H](COCc3ccccc3)NC(=O)C(C)(C)N)C2)C1=O (single isomer, unassigned) [Example 1.5]
21 | 0.0036 µM | 0.302 µM |  | CC(C)(C)CN1CC(c2ccccc2)C2(CCCN(C(=O)[C@@H](COCc3ccccc3)NC(=O)C(C)(C)N)C2)C1=O (stereo partly drawn) [Example 1.75, 2-amino-N-((2R)-3-(benzyloxy)-1-(2-neopentyl-1-oxo-4-phenyl-2,7-diazaspiro[4.5]decan-7-yl)-1-oxopropan-2-yl)-2-methylpropanamide]
22 | 0.0004 µM | 0.086 µM |  | CN1CC(c2ccccc2)C2(CCCN(C(=O)[C@@H](COCc3ccccc3)NC(=O)C(C)(C)N)CC2)C1=O (single isomer, unassigned) [Example 9.0(iv)]
23 | 0.0054 µM | 1.14 µM |  | CCC(N)(CC)C(=O)N[C@H](COCc1ccccc1)C(=O)N1CCC[C@@]2(C1)C(=O)N(C)C[C@H]2c1ccccc1 [Example 1.71, 2-amino-N-((R)-3-(benzyloxy)-1-((4S,5R)-2-methyl-1-oxo-4-phenyl-2,7-diazaspiro[4.5]decan-7-yl)-1-oxopropan-2-yl)-2-ethylbutanamide]
24 | 0.0023 µM | 1.34 µM |  | CN1C[C@H](c2ccccc2)[C@]2(CCCN(C(=O)[C@@H](COCc3ccccc3)NC(=O)C(C)(C)N)C2)C1=O (single isomer, unassigned) [Example 1.0(i)]
